In patent US8026281B2, “Treating metabolic syndrome with fenofibrate” (Lupin Atlantis Holdings, S.A., priority 2004, dated 2011):

Key:
[1] = tested on: high-risk patients; settings: particularly those with diabetes and insulin resistance; cited from earlier work
[2] = cited from earlier work
[3] = tested on: subjects with hypertriglyceridemia and metabolic syndrome; assay: Phase III placebo-controlled study of 130 mg fenofibrate, with and without food: prevalence of metabolic syndrome; settings: for prevalence of metabolic syndrome at end of treatment: 130 mg daily
Procedure: Objectives: A primary outcome variable was the difference in the prevalence of metabolic syndrome between the group treated with 130 mg of fenofibrate (“the treatment group”) versus the placebo group (“the placebo”). A related outcome variable included the effect of food on fenofibrate efficacy.
Methodology: This was a multicenter, prospective, double-blind, double-dummy, randomized, placebo-controlled, parallel group study of a micronized formulation of fenofibrate at a single daily dose of 130 mg. Subjects took prescription or over-the-counter lipid lowering medications or dietary supplements known to alter lipid levels or other aspects of the lipid profile until week 6 (visit 1). At week 6, subjects were instructed to follow the therapeutic lifestyle changes diet, in accordance with the Food and Drug Administration guidelines for clinical evaluations of lipid-altering agents.
Also at week 6, qualifying subjects were stratified by triglyceride level and randomized in a double-blind fashion to one of three groups, the first two of which constituted the treatment group and the third group constituted the placebo: A) 1 fenofibrate capsule (130 mg) with food and 1 placebo capsule without food; B) 1 fenofibrate capsule (130 mg) without food (three hours after a meal) and 1 placebo capsule with food; and C) placebo, 1 placebo capsule with food and 1 placebo capsule without food. […] One capsule was taken with the subjects' evening meal and a second capsule was taken three hours post-meal. The first dosing occurred on the first evening after visit 4. A lipid profile was measured at every visit, and other measurements were taken regularly throughout the study.
Treatment duration was eight weeks.

Cc1ccc(C)c(OCCCC(C)(C)C(=O)O)c1 [gemfibrozil]
risk for major cardiovascular events [1]: reduced the risk for major cardiovascular events

CC(C)(Oc1ccc(C(=O)c2ccc(Cl)cc2)cc1)C(=O)O [fenofibric acid]
mean concentration in the plasma ([2]; dose of 300 mg per day): ~15000 ng/mL
time of maximum concentration in the plasma after ingestion of the medicinal product ([2]; on average): five
half-life for elimination from the plasma ([2]; plasma): ~20 h

CC(C)OC(=O)C(C)(C)Oc1ccc(C(=O)c2ccc(Cl)cc2)cc1 [fenofibrate, 2-[4-(4-chlorobenzoyl)phenoxy]-2-methyl-propanoic acid, 1-methylethyl ester]
safety and efficacy conclusion ([3]; fenofibrate formulation 130 mg, eight weeks): safe and efficacious
food effect ([3]; fenofibrate formulation 130 mg, with food versus without food): does not exhibit a food effect
prevalence of metabolic syndrome at end of treatment ([3]; fenofibrate with food group, eight weeks, reduced from 96.3% prevalence): 74.1%
prevalence of metabolic syndrome at end of treatment ([3]; fenofibrate without food group (three hours after a meal), eight weeks, reduced from 97.6% prevalence): 66.7%
decrease in number of subjects having three or more metabolic syndrome criteria ([3]; treatment group (fenofibrate 130 mg once daily, with or without food), eight-week treatment, placebo 12%, chi-square p-value=0.0416): more than 25%
prevalence of metabolic syndrome at end of treatment ([3]; whole treatment group, eight weeks, reduced from 96.9% prevalence, placebo 98.0% to 86.0%): 70.8%
